In PubChem BioAssay (NCI):
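Cells were grown in 96-well plates and exposed to each compound for 48 hours at five concentrations; endpoints were interpolated linearly between bracketing concentrations, or set to the highest concentration if not reached. GI50 is the concentration that inhibits growth by half. The concentration for full growth arrest is given as TGI.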

Tests used:
Assay in all cases: NCI-60 cell line screen, 48 h
MDA-MB-435 = system: MDA-MB-435
SNB-75 CNS = system: SNB-75 CNS
HCC-2998 colon = system: HCC-2998 colon
786-0 renal = system: 786-0 renal
M14 melanoma = system: M14 melanoma
RXF 393 renal = system: RXF 393 renal
UACC-62 melanoma = system: UACC-62 melanoma
KM12 colon = system: KM12 colon
BT-549 breast = system: BT-549 breast
SK-MEL-28 melanoma = system: SK-MEL-28 melanoma
NCI-H522 lung = system: NCI-H522 lung
COLO 205 colon = system: COLO 205 colon
SF-539 CNS = system: SF-539 CNS
OVCAR-5 ovarian = system: OVCAR-5 ovarian
CAKI-1 renal = system: CAKI-1 renal
UACC-257 melanoma = system: UACC-257 melanoma
CCRF-CEM leukemia = system: CCRF-CEM leukemia
HCT-15 colon = system: HCT-15 colon
K-562 leukemia = system: K-562 leukemia
TK-10 renal = system: TK-10 renal
IGROV1 ovarian = system: IGROV1 ovarian
HCT-116 colon = system: HCT-116 colon
NCI/ADR-RES ovarian = system: NCI/ADR-RES ovarian
SW-620 colon = system: SW-620 colon
NCI-H460 lung = system: NCI-H460 lung
HL-60(TB) leukemia = system: HL-60(TB) leukemia
HOP-62 NSCLC = system: HOP-62 NSCLC
SK-MEL-5 melanoma = system: SK-MEL-5 melanoma
PC-3 prostate = system: PC-3 prostate
OVCAR-4 ovarian = system: OVCAR-4 ovarian
MALME-3M melanoma = system: MALME-3M melanoma
SNB-19 CNS = system: SNB-19 CNS
OVCAR-8 ovarian = system: OVCAR-8 ovarian
DU-145 prostate = system: DU-145 prostate
RPMI-8226 leukemia = system: RPMI-8226 leukemia
SF-295 CNS = system: SF-295 CNS
MCF7 breast = system: MCF7 breast
SK-MEL-2 melanoma = system: SK-MEL-2 melanoma
A549 NSCLC = system: A549 NSCLC
LOX IMVI melanoma = system: LOX IMVI melanoma
HT29 colon = system: HT29 colon
ACHN renal = system: ACHN renal
NCI-H226 lung = system: NCI-H226 lung
UO-31 renal = system: UO-31 renal
EKVX NSCLC = system: EKVX NSCLC
U251 CNS = system: U251 CNS
SK-OV-3 ovarian = system: SK-OV-3 ovarian
SF-268 CNS = system: SF-268 CNS
SR leukemia = system: SR leukemia
MOLT-4 leukemia = system: MOLT-4 leukemia
HS 578T breast = system: HS 578T breast
SN12C renal = system: SN12C renal
OVCAR-3 ovarian = system: OVCAR-3 ovarian
A498 renal = system: A498 renal
NCI-H23 lung = system: NCI-H23 lung
MDA-MB-231 breast = system: MDA-MB-231 breast
T-47D breast = system: T-47D breast
HOP-92 NSCLC = system: HOP-92 NSCLC

With `COc1cc(C2Cc3ncccc3-c3[nH]c(=O)c4cccnc4c32)cc(OC)c1OC` (stereo unspecified) the GI50 (MDA-MB-435) was 55.4 nM, the TGI (MDA-MB-435) was 428 nM and the GI50 (SNB-75 CNS) was 255 nM. For the same molecule, the TGI (SNB-75 CNS) was greater than 100 µM, the GI50 (HCC-2998 colon) was 2.24 µM and the TGI (HCC-2998 colon) was greater than 100 µM. The GI50 (786-0 renal) was 1410 nM, the TGI (786-0 renal) was greater than 100 µM and the GI50 (M14 melanoma) was 405 nM. For the same molecule, the TGI (M14 melanoma) was greater than 100 µM, the GI50 (RXF 393 renal) was 289 nM and the TGI (RXF 393 renal) was 2010 nM. For the same molecule, the GI50 (UACC-62 melanoma) was 463 nM, the TGI (UACC-62 melanoma) was greater than 100 µM and the GI50 (KM12 colon) was 373 nM. It also gave a TGI (KM12 colon) greater than 100000 nM, a GI50 (BT-549 breast) of 633 nM and a TGI (BT-549 breast) of 66.6 µM. The GI50 (SK-MEL-28 melanoma) was 36 µM, the TGI (SK-MEL-28 melanoma) was greater than 100 µM and the GI50 (NCI-H522 lung) was 204 nM. It also gave a TGI (NCI-H522 lung) of 0.635 µM, a GI50 (COLO 205 colon) of 332 nM and a TGI (COLO 205 colon) of 1270 nM. The GI50 (SF-539 CNS) was 269 nM, the TGI (SF-539 CNS) was 1550 nM and the GI50 (OVCAR-5 ovarian) was 4.82 µM. It also gave a TGI (OVCAR-5 ovarian) greater than 100 µM, a GI50 (CAKI-1 renal) of 1580 nM and a TGI (CAKI-1 renal) greater than 100 µM. For the same molecule, the GI50 (UACC-257 melanoma) was greater than 100000 nM, the TGI (UACC-257 melanoma) was greater than 100 µM and the GI50 (CCRF-CEM leukemia) was 467 nM. For the same molecule, the TGI (CCRF-CEM leukemia) was greater than 100 µM, the GI50 (HCT-15 colon) was 809 nM and the TGI (HCT-15 colon) was greater than 100 µM. For the same molecule, the GI50 (K-562 leukemia) was 313 nM, the TGI (K-562 leukemia) was greater than 100 µM and the GI50 (TK-10 renal) was greater than 100000 nM. For the same molecule, the TGI (TK-10 renal) was greater than 100 µM, the GI50 (IGROV1 ovarian) was 460 nM and the TGI (IGROV1 ovarian) was greater than 100 µM. It also gave a GI50 (HCT-116 colon) of 456 nM, a TGI (HCT-116 colon) greater than 100 µM and a GI50 (NCI/ADR-RES ovarian) of 2160 nM. The TGI (NCI/ADR-RES ovarian) was greater than 100 µM, the GI50 (SW-620 colon) was 412 nM and the TGI (SW-620 colon) was greater than 100 µM. For the same molecule, the GI50 (NCI-H460 lung) was 429 nM, the TGI (NCI-H460 lung) was greater than 100 µM and the GI50 (HL-60(TB) leukemia) was 251 nM. It also gave a TGI (HL-60(TB) leukemia) of 2950 nM, a GI50 (HOP-62 NSCLC) of 396 nM and a TGI (HOP-62 NSCLC) greater than 87.4 µM. The GI50 (SK-MEL-5 melanoma) was 339 nM, the TGI (SK-MEL-5 melanoma) was 20.2 µM and the GI50 (PC-3 prostate) was 513 nM. The TGI (PC-3 prostate) was greater than 100 µM, the GI50 (OVCAR-4 ovarian) was 1120 nM and the TGI (OVCAR-4 ovarian) was greater than 100 µM. It also gave a GI50 (MALME-3M melanoma) greater than 100 µM, a TGI (MALME-3M melanoma) greater than 100 µM and a GI50 (SNB-19 CNS) of 823 nM. It also gave a TGI (SNB-19 CNS) greater than 100 µM, a GI50 (OVCAR-8 ovarian) of 970 nM and a TGI (OVCAR-8 ovarian) greater than 100 µM. For the same molecule, the GI50 (DU-145 prostate) was 428 nM, the TGI (DU-145 prostate) was greater than 100 µM and the GI50 (RPMI-8226 leukemia) was 680 nM. It also gave a TGI (RPMI-8226 leukemia) greater than 100 µM, a GI50 (SF-295 CNS) of 274 nM and a TGI (SF-295 CNS) greater than 100 µM. It also gave a GI50 (MCF7 breast) of 277 nM, a TGI (MCF7 breast) greater than 100 µM and a GI50 (SK-MEL-2 melanoma) of 0.485 µM. It also gave a TGI (SK-MEL-2 melanoma) greater than 100 µM, a GI50 (A549 NSCLC) of 825 nM and a TGI (A549 NSCLC) greater than 100 µM. The GI50 (LOX IMVI melanoma) was 452 nM, the TGI (LOX IMVI melanoma) was greater than 100 µM and the GI50 (HT29 colon) was 347 nM. The TGI (HT29 colon) was greater than 100 µM, the GI50 (ACHN renal) was 669 nM and the TGI (ACHN renal) was greater than 100 µM. The GI50 (NCI-H226 lung) was greater than 74700 nM, the TGI (NCI-H226 lung) was greater than 100 µM and the GI50 (UO-31 renal) was 819 nM. The TGI (UO-31 renal) was greater than 100 µM, the GI50 (EKVX NSCLC) was 3210 nM and the TGI (EKVX NSCLC) was greater than 100 µM. It also gave a GI50 (U251 CNS) of 524 nM, a TGI (U251 CNS) of 38.2 µM and a GI50 (SK-OV-3 ovarian) of 0.376 µM. It also gave a TGI (SK-OV-3 ovarian) greater than 100 µM, a GI50 (SF-268 CNS) of 670 nM and a TGI (SF-268 CNS) greater than 100 µM. It also gave a GI50 (SR leukemia) of 281 nM, a TGI (SR leukemia) greater than 100 µM and a GI50 (MOLT-4 leukemia) of 535 nM. For the same molecule, the TGI (MOLT-4 leukemia) was greater than 100 µM, the GI50 (HS 578T breast) was 613 nM and the TGI (HS 578T breast) was greater than 100 µM. It also gave a GI50 (SN12C renal) of 1190 nM, a TGI (SN12C renal) greater than 100 µM and a GI50 (OVCAR-3 ovarian) of 323 nM. The TGI (OVCAR-3 ovarian) was 5.49 µM, the GI50 (A498 renal) was 363 nM and the TGI (A498 renal) was 13.5 µM. The GI50 (NCI-H23 lung) was 999 nM, the TGI (NCI-H23 lung) was greater than 100 µM and the GI50 (MDA-MB-231 breast) was 3880 nM. For the same molecule, the TGI (MDA-MB-231 breast) was greater than 100 µM.
In the case of `COCCNCc1ccc(-c2cc3nccc(Oc4ccc(NC(=S)NC(=O)Cc5ccc(F)cc5)cc4F)c3s2)nc1`, the GI50 (HCC-2998 colon) was 4.68 µM, the TGI (HCC-2998 colon) was 26.9 µM and the GI50 (KM12 colon) was 328 nM. It also gave a TGI (KM12 colon) of 2000 nM, a GI50 (T-47D breast) of 2120 nM and a TGI (T-47D breast) of 5.75 µM. The GI50 (NCI-H522 lung) was 2510 nM, the TGI (NCI-H522 lung) was 6.5 µM and the GI50 (COLO 205 colon) was 2020 nM. For the same molecule, the TGI (COLO 205 colon) was 4300 nM, the GI50 (SF-539 CNS) was 909 nM and the TGI (SF-539 CNS) was 2410 nM. It also gave a GI50 (OVCAR-5 ovarian) of 3.05 µM, a TGI (OVCAR-5 ovarian) of 13.6 µM and a GI50 (UACC-257 melanoma) of 1840 nM. The TGI (UACC-257 melanoma) was 3.52 µM, the GI50 (TK-10 renal) was 2450 nM and the TGI (TK-10 renal) was 5.08 µM. The GI50 (NCI/ADR-RES ovarian) was 2020 nM, the TGI (NCI/ADR-RES ovarian) was 5.2 µM and the GI50 (OVCAR-8 ovarian) was 2170 nM. It also gave a TGI (OVCAR-8 ovarian) of 5.12 µM, a GI50 (RPMI-8226 leukemia) of 2040 nM and a TGI (RPMI-8226 leukemia) of 5.13 µM. For the same molecule, the GI50 (SK-MEL-2 melanoma) was 6.01 µM, the TGI (SK-MEL-2 melanoma) was 19.1 µM and the GI50 (A549 NSCLC) was 1720 nM. For the same molecule, the TGI (A549 NSCLC) was 3.29 µM, the GI50 (HOP-92 NSCLC) was 1220 nM and the TGI (HOP-92 NSCLC) was 4.48 µM. It also gave a GI50 (HT29 colon) of 1450 nM, a TGI (HT29 colon) of 3.19 µM and a GI50 (ACHN renal) of 1970 nM. The TGI (ACHN renal) was 4.54 µM, the GI50 (NCI-H226 lung) was 1980 nM and the TGI (NCI-H226 lung) was 6.48 µM. The GI50 (EKVX NSCLC) was 2500 nM, the TGI (EKVX NSCLC) was 6.96 µM and the GI50 (U251 CNS) was 1530 nM. It also gave a TGI (U251 CNS) of 2.94 µM, a GI50 (SK-OV-3 ovarian) of 18.5 µM and a TGI (SK-OV-3 ovarian) of 34.4 µM. It also gave a GI50 (SF-268 CNS) of 1880 nM, a TGI (SF-268 CNS) of 4.73 µM and a GI50 (HS 578T breast) of 1810 nM. For the same molecule, the TGI (HS 578T breast) was 4.91 µM, the GI50 (OVCAR-3 ovarian) was 1930 nM and the TGI (OVCAR-3 ovarian) was 3.52 µM. For the same molecule, the GI50 (A498 renal) was 2110 nM, the TGI (A498 renal) was 8.71 µM and the GI50 (NCI-H23 lung) was 1510 nM. It also gave a TGI (NCI-H23 lung) of 4.63 µM, a GI50 (MDA-MB-231 breast) of 1970 nM and a TGI (MDA-MB-231 breast) of 4.1 µM.
